# Source: publication PMC10267362, “Boron-peptide conjugates with angiopep-2 for boron neutron capture therapy” (Frontiers in Medicine, 2023)
# Tests used:
# HS683 cells [1] = assay: Clonogenic cell survival assay after BNCT (thermal neutron irradiation) in vitro; assay type: cell-based, human; conditions: 5 mM drug for 12 h, neutron flux 3.0 ± 0.4 × 10^11 n/cm^2 in 2 h, colonies after 2 weeks, mean ± SD, three biological repeats
# Procedure: Thermal neutron radiation was given as described previously ([16]). A high-current proton beam (3.5 MeV) generated from a radio frequency quadrupole (RFQ) accelerator at the China Spallation Neutron Source was used to bombard a lithium target and produce thermal neutrons (0.5 eV-10 keV) for BNCT.
# HS683 cells (10^6/sample) were prepared in centrifuge tubes (1.5 mL, Eppendorf) and treated with ANG-B, TAT-B, T7-B, or BPA at various concentrations (0.0–5.0 mM) for 12 h. Epithermal neutrons were given with a total neutron flux of 3.0 ± 0.4 × 10^11 n/cm^2 given in 2 h. The drug-containing medium was then washed off and desirable numbers of cells in single-cell suspension were seeded into 6-well plates to grow colonies in 2 weeks. Colonies were fixed in 70% ethanol at room temperature for 10 min, and stained with 0.1% crystal violet. Colonies with more than 50 cells were scored as clonogenic survivors.
# BNCT eliminates cancer cells by heavy charged particle rays, where reproductive cell death plays a vital role in the treatment outcome ([17], [18]). Here we employed the clonogenic survival assay to analyze the reproductive cell death of glioma cells after BNCT treatment in vitro. To guarantee the performance of BNCT in vitro, we designed and manufactured a tube-holding device for thermal neutron irradiation of cells (Figure 2A). BNCT with these boron delivery agents were tested on HS683 cells. […] BNCT with 5 mM ANG-B caused 86.5% ± 5.3% of clonogenic cell death. […] Therefore, ANG-B was selected for the following in vivo study.
# [2] = Boron biodistribution in intracranial glioma mouse model (ICP-AES); assay type: in vivo
# Procedure: The glioma mouse model was established as reported recently ([16]). HS683 cells were transfected with luciferase-expressing vector (Lenti-UTR-Luc-Blank Vector; Promega). BALB/c nude mice were anesthetized by intraperitoneal injection of tribromoethanol (150 mg/kg) and then placed in a stereotaxic instrument. A hole was made in the mouse skull and 5 μL of HS683 cell suspension (2 × 10^7 cells/mL) was injected into the brain using the stereotaxic instrument. The growth state of glioma tumours in mice was monitored by bioluminescent imaging (IVIS 3D Perkin Elmer). Animal experiments were performed according to the protocols approved by the Animal Use Review Board and Ethical Committee of Shenzhen Bay Laboratory (permit no. AFRQS202101). After treatment with boronated peptides or BPA (HEC Pharm, Dongguan, China), boron concentrations in human cells or mice tissues were measured by inductively coupled plasma atomic emission spectroscopy (abbr., ICP-AES; Leeman’s Prodigy 7) using published methods ([16]). Proper microenvironmental components are critical for the treatment response of glioma ([19], [20]). Thus, we constructed an intracranial mouse glioma model based on HS683 cells and a research plan based on this model for testing ANG-B effects (Figure 3A). In order to monitor the intracranial tumour growth, we used luciferase-expressing cells for this mouse model (Supplementary Figure S5A). Boron biodistribution was examined at the time point for thermal neutron irradiation. 2.5 mM/kg of ANG-B or BPA (in 5% fructose solution) was injected into mice, and tissues or organs from the tumour, blood, brain, lung, liver, heart, spleen, and kidney were then collected at indicated time points for measuring boron concentrations (Supplementary Figure S5B). […] At 4 h after drug injection, the T/N ratio of ANG-B was 5.61 ± 1.0 and the T/B ratio was 9.42 ± 2.47.
# [3] = tested on: HS683 intracranial glioma; assay: In vivo BNCT in intracranial glioma mouse model, 18F-FDG PET/CT; conditions: for SUV (18F-FDG uptake) in tumour tissues after BNCT, compared to control group: PET/CT, p < 0.05
# Procedure: The glioma mouse model was established as reported recently ([16]). HS683 cells were transfected with luciferase-expressing vector (Lenti-UTR-Luc-Blank Vector; Promega). BALB/c nude mice were anesthetized by intraperitoneal injection of tribromoethanol (150 mg/kg) and then placed in a stereotaxic instrument. A hole was made in the mouse skull and 5 μL of HS683 cell suspension (2 × 10^7 cells/mL) was injected into the brain using the stereotaxic instrument. The growth state of glioma tumours in mice was monitored by bioluminescent imaging (IVIS 3D Perkin Elmer). Animal experiments were performed according to the protocols approved by the Animal Use Review Board and Ethical Committee of Shenzhen Bay Laboratory (permit no. AFRQS202101).
# During BNCT, five mice per group were injected with 2.5 mM/kg of BPA (5% fructose solution) or ANG-B solution through the tail vein. 90 min later, mice were anesthetized with an intraperitoneal injection of tribromoethanol at a dose of 150 mg/kg and then fixed in a mould for BNCT irradiation of the mouse head using a published method ([16]). Mice were treated with 2 kW of neutron flux for 2 h each time and four times for each mouse in 1 week, to achieve a total neutron flux of 12.5 ± 0.5 × 10^11 n/cm^2. Mice were anesthetized with 2% isoflurane at 25°C and imaged with PET/CT (nanoSCAN, Mediso) with 1.5 uCi/g ^18F-FDG at 1 day before or 31 days after BNCT. Image processing and analyses were performed by AMIDE (RRID: SCR_005940), where ROI, SUV values, and tumour volume were determined.
# The glioma mouse model was further used in BCNT tests for ANG-B. The body weight of all the used mice was monitored during the whole process, where no obvious health issues with body weight loss were noticed (Supplementary Figure S6A). PET imaging is usually used to evaluate therapeutic response of glioma patients or mouse models ([16], [21], [22]). Therefore, we employed ^18F-FDG-based PET/CT to estimate intracranial tumour volume for each mouse 1 day before and 31 days after BNCT treatments (Figure 4A). An additional lower concentration of ANG-B at 1 mM/kg (i.e., ANG-B low) was included for comparison.
# A375 cells = assay: Boron uptake in cells by ICP-AES; assay type: cell-based, human; conditions: A375 cells (printed A357), 0–0.8 mM for 12 h, p < 0.05
# Procedure: (§1) Cell lines established from human glioma (U87MG, U251, and HS683), melanoma (A375), non-small cell lung cancer (A549), and hepatocellular carcinoma (HepG2) were obtained from the National Infrastructure of Cell Line Resource in China, authenticated, and cultured in DMEM, supplemented with 10% fetal bovine serum (HyClone) and 100 IU/mL penicillin/streptomycin (all Sigma-Aldrich unless otherwise noted). Cells were routinely tested for mycoplasma using the Mycoplasma Test Kit (Cellorlab, China). All cells were maintained in a humidified incubator at 5% CO2 and 37°C after defrosting and cultured in the exponential growth phase before each experiment.
# (§2) After treatment with boronated peptides or BPA (HEC Pharm, Dongguan, China), boron concentrations in human cells or mice tissues were measured by inductively coupled plasma atomic emission spectroscopy (abbr., ICP-AES; Leeman’s Prodigy 7) using published methods ([16]).
# (§3) An efficient boron delivery agent should enhance boron uptake in cancer cells. Thus, we analyzed boron concentrations on 6 human cancer cell lines derived from glioma (U87MG, U251, and HS683), melanoma (A375), non-small cell lung cancer (A549), or hepatocellular carcinoma (HepG2) after treatment with various concentrations of ANG-B, TAT-B, or T7-B for 12 h. BPA was tested in parallel for comparison.
# (§4) Figure 1 Boron concentrations in 6 human cell lines derived from glioma (U87MG, U251, and HS683), melanoma (A375), non-small cell lung cancer (A549), or hepatocellular carcinoma (HepG2). Cells were pre-exposed to 0–0.8 mM of ANG-B, TAT-B, T7-B, or BPA for 12 h. Boron concentrations were then analyzed by ICP-AES in HS683 (A), U251 (B), U87MG (C), A375 (D), HepG2 (E), or A549 cells (F). Mean values with standard errors are shown.
# HS683 cells [4] = assay: Boron uptake in cells by ICP-AES; assay type: cell-based, human; conditions: 0–0.8 mM for 12 h, p < 0.05
# Procedure: as §1, §2, §3, §4
# HepG2 cells = assay: Boron uptake in cells by ICP-AES; assay type: cell-based, human; conditions: 0–0.8 mM for 12 h, p < 0.05
# Procedure: as §1, §2, §3, §4
# [5] = tested on: HS683 intracranial glioma; assay: TUNEL apoptosis assay in mouse tumours after BNCT; assay type: in vivo; conditions: 1 day or 7 days after treatment
# Procedure: DNA fragmentation in apoptosis induced by BNCT was assessed using the one-step TUNEL apoptosis assay kit following the manufacturer’s protocol (Abbkine Scientific Co., Ltd., China).
# In order to evaluate the ^18F-FDG uptake in tumour tissues under different treatment conditions, SUV data were calculated based on a reference region ([23]). […] Based on the 3D PET image data, we also estimated tumour volume before and after BNCT treatment for each mouse (Figure 4B). […] By contrast, tumour size in the control group kept increasing.
# Supplementary Figure 6. In vivo effects of ANG-B based BNCT. (A) Body weight of glioma mouse model after treatment. (B) SUVmax analyses (indicating of FDG uptake) of glioma tumors in PET/CT imaging before and after BNCT treatment. (C) Apoptotic cells in tumor at 1 day or 7days after ANG-B based BNCT treatment as measured by TUNEL assay. Mann–Whitney U test; *p < 0.05.
# U87MG cells = assay: Boron uptake in cells by ICP-AES; assay type: cell-based, human; conditions: 0–0.8 mM for 12 h
# Procedure: as §1, §2, §3, §4
# [6] = melanoma patients; cited from earlier work
# Excerpt: Boron delivery agent is one of the critical factors limiting the expansion of BNCT application in cancer treatment. An ideal boron delivery agent should be low toxicity, high tumour uptake, quick blood clearance, T/N ratio > 3, and low accumulation in healthy tissues. Unfortunately, no existing boron delivery agents can fulfil all these requirements. Historically, BPA is the most popular boron delivery agent in clinical BNCT. Cancer cells usually promote cellular amino acid transport and result in increased uptake of BPA, especially in melanoma cells ([27]). A study evaluated the biodistributi ...
# [7] = 4 h after tail-vein injection of 2.5 mM/kg, intracranial HS683 glioma mice, ICP-AES, three mice per group
# [8] = glioma mouse model, 2.5 mM/kg in 5% fructose solution, time not stated
Compound,clonogenic cell death after BNCT (HS683 cells [1]),"glioma-targeting effects and blood clearance compared with BPA ([2]; 2.5 mM/kg tail vein, 1, 2, 4 or 6 h, glioma mouse model)","Tumour/blood (T/B) ratio of boron [2, 7]","Tumour/normal (T/N) tissue ratio of boron [2, 7]","SUV (18F-FDG uptake) in tumour tissues after BNCT, compared to control group ([3]; 1 mM/kg (ANG-B low))","tumour volume at 31 days after BNCT treatment ([3]; 2.5 mM/kg, 18F-FDG PET imaging before and after BNCT)","SUV (18F-FDG uptake) in tumour tissues after BNCT, compared to control group ([3]; 2.5 mM/kg)",boron uptake compared with BPA (A375 cells),boron uptake compared with BPA (HS683 cells [4]),boron uptake compared with BPA (HepG2 cells),apoptotic cells in mouse tumours after BNCT [5],"T/B ratio of boron [2, 8]","T/N ratio of boron [2, 8]",boron uptake compared with boronated peptides (U87MG cells),T/N ratio [6],skin-to-blood ratio [6]
"TFFYGGSRGKRNNFKTEEYC [ANG-B, N-terminal boron-containing derivative of angiopep-2 with 10B-4-carboxyphenylboronic acid at N terminus and cysteine at C terminus]",86.5% ± 5.3%,significantly better,9.42 ± 2.47,5.61 ± 1.0,significantly decreased SUV,significantly decreased tumour volume,significantly decreased SUV,significantly more boron uptake than BPA,significantly more boron uptake than BPA,significantly more boron uptake than BPA,more apoptotic cells,,,,,
"N[C@@H](Cc1ccc([10B](O)O)cc1)C(=O)O [BPA, ^10B-p-boronophenylalanine, reference compound]",73.3% ± 6.0%,,,,,,significantly decreased SUV,,,,,approximately 2,approximately 2,took up more BPA,3.40,1.31
"MASMTGGQQMG [T7-B, boron-peptide conjugate used as control]",54.5% ± 1.1%,,,,,,,,,,,,,,,
